Where two headings read alike, the source gives them in different places.
Experiments:
[1] = every three weeks IV; cited from earlier work
[2] = IV docetaxel AUC in mCRPC vs other tumors (De Vries Schultink et al. meta-analysis); format: in vivo, human
[3] = weekly docetaxel 35 mg/m2 as 0.5 h intravenous infusion; cited from earlier work
[4] = Phase IB/IIA trial M17DOC in mCRPC: docetaxel plasma pharmacokinetics; set-up: species or system human; details: in vivo, po
Method: A multicenter clinical phase IB/IIA study was conducted in mCRPC (M17DOC), wherein ModraDoc006, an oral docetaxel formulation was combined with ritonavir (ModraDoc006/r), in metastasized castration-resistant prostate cancer (mCRPC).
The study included patients diagnosed with metastasized castration-resistant prostate cancer (mCRPC), dosed in a bi-daily once weekly (BIDW) dosing schedule at 4 dose levels (see table below).

[5] = Weekly intravenous docetaxel 35 mg/m2 pharmacokinetics (Baker et al. 2004); format: in vivo, human; details: 35 mg/m2 in 0.5 h vs oral in patients with solid tumors (not prostate)

CC(=O)O[C@@]12CO[C@@H]1C[C@H](O)[C@@]1(C)C(=O)[C@H](O)C3=C(C)[C@@H](OC(=O)[C@H](O)[C@@H](NC(=O)OC(C)(C)C)c4ccccc4)C[C@@](O)([C@@H](OC(=O)c4ccccc4)[C@H]21)C3(C)C [docetaxel]
q3w AUC of IV docetaxel in mCRPC patients [1]: 1820 ng·h/mL
ratio of AUCs for IV docetaxel in mCPRC patients vs other tumors ([2]; 1820/3300): 55%
AUC ([2]; male, human, in vivo, iv, weekly equivalent, mCRPC, read-out: weekly AUC of IV docetaxel in mCRPC patients (q3w AUC divided by 3)): ~600 ng·h/mL
AUC [3]: 480 ± 410 ng·h/mL
CMAX [3]: 1930 ± 600 ng/mL
docetaxel clearance in mCRPC patients vs patients with other solid tumors [4]: higher clearance
CMAX of intravenous docetaxel relative to oral ModraDoc006/r 30-20/100-100 [5]: ten-fold higher

Source: patent publication US20220071944A1, “Combination Treatment for Solid Tumors Using Docetaxel and a CYP3A Inhibitor” (Modra Pharmaceuticals B.V., priority 2018, published 2022)
